Data on 12 molecules can be found in ChEMBL document CHEMBL5291721, “A preclinical secondary pharmacology resource illuminates target-adverse drug reaction associations of marketed drugs” (Nat Commun, 2023).

One test deals with D(3) dopamine receptor (Homo sapiens, UniProt P35462).
Test [1] deals with Gamma-aminobutyric acid receptor subunit alpha-1 (Rattus norvegicus, UniProt P62813). The class given is functional.
Test [2] concerns the target Sodium-dependent serotonin transporter (Homo sapiens, UniProt P31645).
Test [3] deals with Beta-2 adrenergic receptor (Homo sapiens, UniProt P07550). The format is functional, cell-based.
Test [4] concerns the target 5-hydroxytryptamine receptor 2A (Homo sapiens, UniProt P28223). The format is functional, cell-based.
For test [5], the target named is T1, Muscarinic acetylcholine receptor M2 (Homo sapiens, UniProt P08172).
T1 sequence (P08172 whole entry): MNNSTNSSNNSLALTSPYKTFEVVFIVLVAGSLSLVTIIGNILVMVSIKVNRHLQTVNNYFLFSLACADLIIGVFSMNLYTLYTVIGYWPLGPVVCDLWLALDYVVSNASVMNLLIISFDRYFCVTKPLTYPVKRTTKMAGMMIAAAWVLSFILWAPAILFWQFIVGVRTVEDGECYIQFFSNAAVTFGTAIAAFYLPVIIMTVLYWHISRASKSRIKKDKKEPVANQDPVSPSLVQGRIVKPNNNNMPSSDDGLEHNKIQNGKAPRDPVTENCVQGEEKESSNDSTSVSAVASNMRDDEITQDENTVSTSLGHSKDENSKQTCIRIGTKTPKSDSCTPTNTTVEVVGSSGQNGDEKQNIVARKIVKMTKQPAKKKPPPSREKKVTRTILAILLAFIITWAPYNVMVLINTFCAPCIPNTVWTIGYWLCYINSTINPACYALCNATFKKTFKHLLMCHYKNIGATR
The class given is functional, cell-based.

A further test concerns the target Histamine H2 receptor (Homo sapiens, UniProt P25021). The format is functional, cell-based.
The target in another test is Cannabinoid receptor 1 (Homo sapiens, UniProt P21554). The format is functional, cell-based.
Chain of Cannabinoid receptor 1 (P21554 whole entry): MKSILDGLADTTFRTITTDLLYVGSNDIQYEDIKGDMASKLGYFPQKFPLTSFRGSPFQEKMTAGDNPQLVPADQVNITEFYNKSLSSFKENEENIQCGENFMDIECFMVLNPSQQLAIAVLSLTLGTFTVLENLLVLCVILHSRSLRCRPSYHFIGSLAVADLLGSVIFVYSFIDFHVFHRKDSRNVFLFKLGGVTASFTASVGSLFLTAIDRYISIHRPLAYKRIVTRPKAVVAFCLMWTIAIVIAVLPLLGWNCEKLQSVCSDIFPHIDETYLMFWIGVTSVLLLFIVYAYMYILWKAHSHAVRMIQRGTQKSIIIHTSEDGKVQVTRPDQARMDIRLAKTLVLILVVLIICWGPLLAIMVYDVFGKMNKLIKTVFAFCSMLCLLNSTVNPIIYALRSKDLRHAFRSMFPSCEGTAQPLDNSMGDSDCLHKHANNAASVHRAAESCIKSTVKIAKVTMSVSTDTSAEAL

Some results are limits rather than exact numbers.
Also: assay procedure not described here.

Chain of 5-hydroxytryptamine receptor 2A (P28223 whole entry): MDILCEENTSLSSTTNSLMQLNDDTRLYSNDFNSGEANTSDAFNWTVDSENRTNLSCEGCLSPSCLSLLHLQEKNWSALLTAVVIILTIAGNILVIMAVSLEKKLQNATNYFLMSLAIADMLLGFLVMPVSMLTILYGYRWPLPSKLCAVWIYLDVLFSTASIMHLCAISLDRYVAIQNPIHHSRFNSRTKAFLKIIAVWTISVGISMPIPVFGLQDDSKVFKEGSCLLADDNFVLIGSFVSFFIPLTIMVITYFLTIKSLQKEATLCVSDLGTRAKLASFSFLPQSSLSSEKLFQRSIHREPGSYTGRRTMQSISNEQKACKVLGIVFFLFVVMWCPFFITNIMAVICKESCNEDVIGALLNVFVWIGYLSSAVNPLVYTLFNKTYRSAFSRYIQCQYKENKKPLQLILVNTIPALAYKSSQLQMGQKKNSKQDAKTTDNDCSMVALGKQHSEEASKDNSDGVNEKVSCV
Chain of Sodium-dependent serotonin transporter (P31645 whole entry): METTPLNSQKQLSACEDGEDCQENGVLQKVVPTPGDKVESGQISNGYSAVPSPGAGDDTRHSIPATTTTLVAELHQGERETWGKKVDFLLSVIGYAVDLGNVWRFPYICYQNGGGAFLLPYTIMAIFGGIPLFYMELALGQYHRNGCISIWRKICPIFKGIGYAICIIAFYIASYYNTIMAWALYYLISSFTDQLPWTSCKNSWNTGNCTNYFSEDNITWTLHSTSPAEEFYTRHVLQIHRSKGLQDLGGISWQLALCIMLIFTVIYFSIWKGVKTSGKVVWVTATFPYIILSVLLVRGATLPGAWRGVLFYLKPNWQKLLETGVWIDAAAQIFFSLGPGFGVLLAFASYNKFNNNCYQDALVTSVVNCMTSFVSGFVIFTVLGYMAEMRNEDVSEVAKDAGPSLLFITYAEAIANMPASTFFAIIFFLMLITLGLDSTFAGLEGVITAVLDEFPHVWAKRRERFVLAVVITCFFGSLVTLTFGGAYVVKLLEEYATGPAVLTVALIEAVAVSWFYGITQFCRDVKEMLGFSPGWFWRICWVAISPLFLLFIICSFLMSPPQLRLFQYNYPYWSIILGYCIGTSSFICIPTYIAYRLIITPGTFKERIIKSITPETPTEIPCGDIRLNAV
Chain of Histamine H2 receptor (P25021 whole entry): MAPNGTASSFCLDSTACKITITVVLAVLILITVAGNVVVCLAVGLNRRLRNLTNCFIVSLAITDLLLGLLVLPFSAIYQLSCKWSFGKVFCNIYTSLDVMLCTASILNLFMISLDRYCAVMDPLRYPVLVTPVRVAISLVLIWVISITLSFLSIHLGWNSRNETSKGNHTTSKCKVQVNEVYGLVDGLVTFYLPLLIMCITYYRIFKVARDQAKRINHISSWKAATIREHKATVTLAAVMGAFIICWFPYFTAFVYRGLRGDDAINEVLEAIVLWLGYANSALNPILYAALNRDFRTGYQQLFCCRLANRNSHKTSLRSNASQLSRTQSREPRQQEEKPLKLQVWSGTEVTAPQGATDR
Chain of D(3) dopamine receptor (P35462 whole entry): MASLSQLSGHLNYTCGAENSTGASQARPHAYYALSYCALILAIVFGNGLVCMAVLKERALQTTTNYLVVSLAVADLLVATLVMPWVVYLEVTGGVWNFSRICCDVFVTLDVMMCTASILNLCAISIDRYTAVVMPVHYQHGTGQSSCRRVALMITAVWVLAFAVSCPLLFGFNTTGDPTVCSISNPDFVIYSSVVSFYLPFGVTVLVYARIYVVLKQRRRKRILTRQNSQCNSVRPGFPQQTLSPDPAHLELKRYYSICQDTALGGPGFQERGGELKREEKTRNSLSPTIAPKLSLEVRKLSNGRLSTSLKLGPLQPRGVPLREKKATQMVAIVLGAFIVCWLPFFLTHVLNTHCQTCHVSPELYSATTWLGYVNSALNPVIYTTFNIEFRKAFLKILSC
Chain of Gamma-aminobutyric acid receptor subunit alpha-1 (P62813 whole entry): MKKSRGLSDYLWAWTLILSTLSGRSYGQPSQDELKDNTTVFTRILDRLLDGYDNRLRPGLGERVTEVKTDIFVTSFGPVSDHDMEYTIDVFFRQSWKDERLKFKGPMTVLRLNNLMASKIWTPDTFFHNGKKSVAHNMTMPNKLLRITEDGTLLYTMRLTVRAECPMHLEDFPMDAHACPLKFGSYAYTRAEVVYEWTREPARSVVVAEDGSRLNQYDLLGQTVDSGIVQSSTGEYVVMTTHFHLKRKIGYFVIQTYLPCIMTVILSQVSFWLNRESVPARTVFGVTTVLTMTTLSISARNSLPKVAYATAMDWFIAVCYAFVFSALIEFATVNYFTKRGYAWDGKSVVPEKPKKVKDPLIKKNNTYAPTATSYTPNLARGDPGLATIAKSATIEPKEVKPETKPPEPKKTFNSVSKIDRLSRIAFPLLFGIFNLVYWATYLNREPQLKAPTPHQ

In general, AC50 refers to the concentration giving half of the maximal activity seen. Lower therefore signals greater potency. On to `N=C(N)NCCCCCCC(=O)NC(O)C(=O)NCCCCNCCCN` (stereo not drawn), for which the AC50 (at D(3) dopamine receptor; in test [1]; in test [2]; in test [3]; in test [4]; in test [5]) was greater than 30 µM throughout. For the same molecule, the AC50 on Histamine H2 receptor and at Cannabinoid receptor 1 was greater than 30 µM in each case.

Regarding `CCC(=O)OCC(=O)[C@@]1(OC(=O)CC)[C@@H](C)C[C@H]2[C@@H]3CCC4=CC(=O)C=C[C@]4(C)[C@@]3(F)[C@@H](O)C[C@@]21C` [BETAMETHASONE DIPROPIONATE], the concentration at half-maximal activity (AC50) (at D(3) dopamine receptor; in test [1]; in test [2]; in test [4]; in test [5]; at Histamine H2 receptor) was greater than 30 µM in each case. The molecule also yielded an AC50 at Cannabinoid receptor 1 greater than 30 µM.

For `CCOC(=O)NNc1ccc(N(CC)CC(C)O)nn1` (stereo not drawn) [CADRALAZINE], the AC50 (on D(3) dopamine receptor; in test [1]; in test [2]; in test [4]; in test [5]; at Histamine H2 receptor) was greater than 30 µM throughout. On Cannabinoid receptor 1, the AC50 was greater than 30 µM.

Consider `CC(C)c1cc2c(cc1S(=O)(=O)O)[C@@]1(C)CCC[C@@](C)(C(=O)O)[C@@H]1CC2` [ECABET], for which the AC50 (on D(3) dopamine receptor; in test [1]; in test [2]; in test [4]; in test [5]; at Histamine H2 receptor) was greater than 30 µM throughout. At Cannabinoid receptor 1, this molecule gave a half-maximal activity concentration (AC50) greater than 30 µM.

`CCCN(CC)C(CC)C(=O)Nc1c(C)cccc1C` (stereo not drawn) [ETIDOCAINE]: the AC50 (at D(3) dopamine receptor; in test [1]; in test [2]; in test [4]; in test [5]; at Histamine H2 receptor) was greater than 30 µM in each case. On Cannabinoid receptor 1, the AC50 was greater than 30 µM.

Consider `CN(c1nccc(=O)[nH]1)C1CCN(c2nc3ccccc3n2Cc2ccc(F)cc2)CC1` [MIZOLASTINE], for which the AC50 (on D(3) dopamine receptor; in test [1]; in test [2]; in test [4]; in test [5]; on Histamine H2 receptor) was greater than 30 µM throughout. In addition, the AC50 on Cannabinoid receptor 1 was greater than 30 µM.

`CC[N+]1(C)CCCC(OC(=O)C(O)(c2ccccc2)c2ccccc2)C1` (stereo not drawn) [PIPENZOLATE]: the AC50 (at D(3) dopamine receptor; in test [1]; in test [2]; in test [4]; in test [5]; on Histamine H2 receptor) was greater than 30 µM in each case. The molecule also yielded an AC50 on Cannabinoid receptor 1 greater than 30 µM.

Take `C[n+]1ccccc1/C=N/O` [PRALIDOXIME]: the AC50 (on D(3) dopamine receptor; in test [1]; in test [3]; at Histamine H2 receptor; on Cannabinoid receptor 1) was greater than 30 µM throughout.

For `CC(C)(C)NC[C@H](O)COc1nsnc1N1CCOCC1` [TIMOLOL], the AC50 (on D(3) dopamine receptor; in test [1]; in test [5]; on Histamine H2 receptor; at Cannabinoid receptor 1) was greater than 30 µM each time.

Consider `COc1cc2nccc(Oc3ccc(NC(=O)Nc4cc(C)on4)c(Cl)c3)c2cc1OC` [TIVOZANIB], for which the AC50 in test [4] and in test [5] was greater than 30 µM each time.

For the molecule `CN1[C@@H]2CC[C@H]1C[C@@H](OC(=O)c1c[nH]c3ccccc13)C2` [TROPISETRON], the AC50 at D(3) dopamine receptor was greater than 30 µM; in test [1], 0.5 µM; in test [5] it was greater than 30 µM; on Histamine H2 receptor, greater than 30 µM; on Cannabinoid receptor 1, greater than 30 µM.

In the case of COLISTIN, the AC50 (at D(3) dopamine receptor; in test [1]; in test [3]; in test [4]; at Histamine H2 receptor; on Cannabinoid receptor 1) was greater than 30 µM in each case.
